Assay: Dynamic vapor sorption (DVS) isotherms, 0 to 95% relative humidity
Type: physicochemical
Details: 25±1.0° C.
Experimental: Dynamic vapor sorption isotherms were recorded with a DVS Advantage instrument. The measurement cycle was started at ambient relative humidity (RH) of 40%. RH was then decreased to 0% in 10% steps. […] 5% steps. Finally, RH was increased to ambient relative humidity of 40% in 10% steps. The time per step was set to a minimum of 3 hours and a maximum of 6 hours. If an equilibrium condition with a constant mass change of 0.002%/min for a minimum of 5 min was reached before the maximum time for all examined samples the sequential humidity step was applied before the maximum time of 6 hours. If no equilibrium was achieved the consecutive humidity step was applied after the maximum time of 6 hours. The temperature was 25±1.0° C.
Therefore, Form HB of LNP023 hydrochloride described herein can be assigned as being non-hygroscopic.

CCO[C@H]1CCN(Cc2c(OC)cc(C)c3[nH]ccc23)[C@H](c2ccc(C(=O)O)cc2)C1.Cl [Form HB of LNP023 hydrochloride, 4-((2S,4S)-(4-ethoxy-1-((5-methoxy-7-methyl-1H-indol-4-yl)methyl)piperidin-2-yl))benzoic acid hydrochloride]
hysteresis between the sorption and desorption curve (DVS sorption 0% to 95% RH, desorption 95 to 0% RH): no significant hysteresis
mass difference between 40 and 95% RH (DVS equilibrium mass change) (DVS, reference weight at 0% RH): less than 0.2 weight %
PXRD after the DVS experiment (physical stability of the form) (after DVS cycle 0 to 95% RH): remains unchanged
hygroscopicity assignment (from DVS, non-hygroscopic defined in b47 as mass increase of less than 0.2% at 80% RH at 25° C.): non-hygroscopic

From US12384758B2, “Crystalline form of LNP023” (Novartis AG, priority 2020, dated 2025)
